Assay results published in publication PMC9995496, “A screen for MeCP2-TBL1 interaction inhibitors using a luminescence-based assay” (Scientific Reports, 2023).
Counter-ions that a name gives are not always drawn. Ends that are not written are not given here.

tested on: PRKACA-PRKAR2A interaction (SmBiT-PRKACA / LgBiT-PRKAR2A), protein kinase A; set-up: NanoLuc complementation counter-screen in cell extract, PRKACA with PRKAR2A, loss of luminescence, detects NanoLuc interference; conditions: 0.5 h, 20 µM; inhibitor

For `COC1=C[C@@H]2[C@@H]3Cc4ccc(OC)c(O)c4[C@]2(CCN3C)CC1=O` [UM0142862:01, Sinomenine Hydrochloride], the “Inh (PKA)” value was 0.8653%.

same assay, conditions: counter-screen for NanoLuc interference; 0.5 h, 20 µM; inhibitor

Compared with `CC(=O)O[C@H]1C[C@@]2(C)[C@@H](C[C@@H](O)[C@H]3[C@@]4(C)CC[C@@H](O)[C@@H](C)[C@@H]4CC[C@@]32C)/C1=C(\CCC=C(C)C)C(=O)O` [UM0142840:01, Fusidic Acid (sodium salt)], `COc1cc(/C=C/CO)cc(OC)c1O[C@@H]1O[C@H](CO)[C@@H](O)[C@H](O)[C@H]1O` [UM0142842:01, Syringin] is lower in “Inh (PKA)” value: 1.888% for the first, -0.4642% for the second.

Compared with `C[C@H]1[C@H](C)CC[C@]2(C(=O)O)CC[C@]3(C)C(=CC[C@@H]4[C@@]5(C)C[C@@H](O)[C@H](O)[C@@](C)(CO)[C@@H]5CC[C@]43C)[C@H]12` [UM0142843:01, Asiatic acid], `C[C@H]1[C@H](C)CC[C@]2(C(=O)O[C@@H]3O[C@H](CO[C@@H]4O[C@H](CO)[C@@H](O[C@@H]5O[C@H](C)[C@H](O)[C@@H](O)[C@H]5O)[C@H](O)[C@H]4O)[C@@H](O)[C@H](O)[C@H]3O)CC[C@]3(C)C(=CC[C@@H]4[C@@]5(C)C[C@@H](O)[C@H](O)[C@@](C)(CO)[C@@H]5CC[C@]43C)[C@H]12` [UM0142844:01, Asiaticoside] is lower in “Inh (PKA)” value: 9.304% for the first, -0.7873% for the second.

First: O=C1C[C@@H](c2ccc(O)cc2)Oc2cc(O)cc(O)c21 [UM0142845:01, Naringenin]
Second: C=C1CC[C@@H]2[C@](C)(CO)[C@H](O)CC[C@@]2(C)[C@H]1C/C=C1\C=COC1=O [UM0142846:01, Dehydroandrographolide]
The “Inh (PKA)” value of the first is lower: 6.247% for the first, 12.37% for the second.

First: CC(C)=CCCC(C)(O)C1CCC2(C)C1C(O)CC1C3(C)CCC(O)C(C)(C)C3CCC12C (stereo not shown) [UM0142847:01, Protopanaxdiol]
Second: OC[C@H]1NC[C@H](O)[C@@H](O)[C@@H]1O [UM0142849:01, 1-Deoxynojirimycin]
The “Inh (PKA)” value of the first is higher: 2.916% for the first, 1.08% for the second.

Going from `C[C@H](CCC(=O)O)[C@H]1CC[C@H]2[C@@H]3CC[C@@H]4C[C@H](O)CC[C@]4(C)[C@H]3C[C@H](O)[C@]12C` [UM0142850:01, Deoxycholic acid] to `O=C(O)c1cc(O)c2c(c1)[C@@H]([C@H]1c3cc(C(=O)O)cc(O)c3C(=O)c3c(O[C@@H]4O[C@H](CO)[C@@H](O)[C@H](O)[C@H]4O)cccc31)c1cccc(O[C@@H]3O[C@H](CO)[C@@H](O)[C@H](O)[C@H]3O)c1C2=O` [UM0142851:01, Sennoside B], the “Inh (PKA)” value rises from 5.283% to 36.22%.

Going from `O=C(O)c1cc(O)c2c(c1)[C@H]([C@H]1c3cc(C(=O)O)cc(O)c3C(=O)c3c(O[C@@H]4O[C@H](CO)[C@@H](O)[C@H](O)[C@H]4O)cccc31)c1cccc(O[C@@H]3O[C@H](CO)[C@@H](O)[C@H](O)[C@H]3O)c1C2=O` [UM0142852:01, Sennoside A] to `C[C@H]1[C@@H](O)O[C@@H]2O[C@@]3(C)CC[C@H]4[C@H](C)CC[C@@H]1[C@@]24OO3` [UM0142853:01, Dihydroartemisinin], the “Inh (PKA)” value falls from 33.8% to 0.1421%.

Compared with `CC1(C)[C@@H](O[C@H]2O[C@H](C(=O)O)[C@@H](O)[C@H](O)[C@H]2O[C@@H]2O[C@H](C(=O)O)[C@@H](O)[C@H](O)[C@H]2O)CC[C@]2(C)[C@H]3C(=O)C=C4[C@@H]5C[C@@](C)(C(=O)O)CC[C@]5(C)CC[C@@]4(C)[C@]3(C)CC[C@@H]12` [UM0142854:01, Glycyrrhizic acid], `O=C1c2c(O)cc(O)cc2O[C@H](c2ccc(O)c(O)c2)[C@H]1O` [UM0142856:01, Taxifolin] is lower in “Inh (PKA)” value: 4.863% for the first, 0.9672% for the second.

Going from `Cc1coc2c1C(=O)C(=O)c1c-2ccc2c(C)cccc12` [UM0142857:01, Tanshinone I] to `O=C1c2c(O)cc(O)cc2O[C@H](c2cc(O)c(O)c(O)c2)[C@H]1O` [UM0142858:01, Dihydromyricetin], the “Inh (PKA)” value falls from 27.32% to 4.571%.

Going from `C=C1CC[C@@H]2[C@](C)(CO)[C@H](O)CC[C@@]2(C)[C@@H]1C/C=C1/C(=O)OC[C@H]1O` [UM0142859:01, Andrographolide] to `COc1ccc([C@@H]2CC(=O)c3c(O)cc(O)cc3O2)cc1O` [UM0142860:01, Hesperitin], the “Inh (PKA)” value rises from 1.527% to 3.061%.

Compared with `CCc1c2c(nc3ccc(O)cc13)-c1cc3c(c(=O)n1C2)COC(=O)[C@]3(O)CC` [UM0142861:01, 7-Ethyl-10-hydroxycamptothecin], `O=c1cc(-c2ccc(O)c(-c3c(O)cc(O)c4c(=O)cc(-c5ccc(O)cc5)oc34)c2)oc2cc(O)cc(O)c12` [UM0142863:01, Amentoflavone] is higher in “Inh (PKA)” value: 8.347% for the first, 47.02% for the second.

Compared with `CCCC[N+]1(C)[C@@H]2C[C@@H](OC(=O)[C@H](CO)c3ccccc3)C[C@H]1[C@@H]1O[C@@H]12` (stereo partly shown) [UM0142864:01, Scopolamine butylbromide], `Nc1ncnc2c1ncn2[C@@H]1O[C@H](CO)C[C@H]1O` [UM0142866:01, Cordycepin] is lower in “Inh (PKA)” value: 0.502% for the first, -8.119% for the second.

Going from `Nc1ccccc1NC(=O)CCCCCCC(=O)Nc1ccccc1` [UM0142867:01, BML-210(CAY10433)] to `Fc1ccc(C(c2ccc(F)cc2)N2CCN(C/C=C/c3ccccc3)CC2)cc1` [flunarizine], the “Inh (PKA)” value rises from 8.004% to 10.34%.

Compared with `C=C1C(=O)[C@]23[C@H](O)[C@H]1CC[C@H]2[C@@]12CO[C@]3(O)[C@@H](O)[C@@H]1C(C)(C)CC[C@@H]2O` [oridonin], “QVPSRPNRAP [UM0141376:01, Dynamin inhibitory peptide]” is lower in “Inh (PKA)” value: 14.12% for the first, 1.092% for the second.

“VPMLK [UM0141837:01, Bax inhibitor peptide V5]” was tested, and the “Inh (PKA)” value was -2.196%.
